Read-outs that look alike come from different tables or passages of the source.
Tests used:
[1] = type: physicochemical; details: for Solubility: room temperature; for Reduction of the solubility of noscapine by adding an equal amount of water: Table 1 compared with Table 2
Experimental: Noscapine solubility was also determined at room temperature for the following solvent mixtures, mixed in a roughly 1:1 ratio by weight: acetone:water, acetonitrile:water, chloroform:ethanol, toluene:ethanol. Solubilities were determined using methods similar to those described above, and the measured solubilities are summarized in Table 2.

[2] = type: physicochemical; details: for Solubility: neutral pH
Experimental: To determine the solubility of noscapine in a variety of different solvents at neutral pH, the following experiment was conducted. Noscapine solubility was determined at ambient temperature (22° C.-23° C.) and at 50° C. by dissolving noscapine and noting the amount dissolved prior to saturation for the following solvents: acetone, acetonitrile, ethanol, isopropanol, methanol, pentanol, toluene, and water.

[3] = type: physicochemical
Experimental: To characterize the solubility of noscapine in acetonitrile/water systems, the following experiment was conducted. […] The results of the solubility measurements are summarized in Table 3 and are summarized in a graph in FIG. 8.

Structure (SMILES): COc1ccc2c(c1OC)C(=O)O[C@@H]2[C@H]1c2c(cc3c(c2OC)OCO3)CCN1C [noscapine]
- Solubility ([1]; Acetone 49.4% / Water 50.6% by weight): 3.21 mg noscapine/g of solvent
- Solubility ([1]; Acetonitrile 48.6% / Water 51.4% by weight): 1.06 mg noscapine/g of solvent
- Solubility ([1]; Chloroform 50.0% / Ethanol 50.0% by weight): 73.34 mg noscapine/g of solvent
- Solubility ([1]; Toluene 51.0% / Ethanol 49.0% by weight): 37.21 mg noscapine/g of solvent
- Reduction of the solubility of noscapine by adding an equal amount of water ([1]; second solvent of 'acetone and water' as printed): about 98%
- Reduction of the solubility of noscapine by adding an equal amount of water ([1]; solvent acetone): about 95%
- Solubility ([2]; Acetone, 23° C.): 68.56 mg of noscapine/g of solvent
- Solubility ([2]; Acetone, 50° C.): 145.98 mg of noscapine/g of solvent
- Solubility ([2]; Acetonitrile, 23° C.): 52.33 mg of noscapine/g of solvent
- Solubility ([2]; Acetonitrile, 50° C.): 151.21 mg of noscapine/g of solvent
- Solubility ([2]; Chloroform, 23° C.): 504.11 mg of noscapine/g of solvent
- Solubility ([2]; Ethanol, 50° C.): 5.90 mg of noscapine/g of solvent
- Solubility ([2]; Isopropanol, 50° C.): 12.99 mg of noscapine/g of solvent
- Solubility ([2]; Methanol, 50° C.): 1.81 mg of noscapine/g of solvent
- Solubility ([2]; Pentanol, 50° C.): 12.29 mg of noscapine/g of solvent
- Solubility ([2]; Toluene, 23° C.): 40.65 mg of noscapine/g of solvent
- Solubility ([2]; Toluene, 50° C.): 59.99 mg of noscapine/g of solvent
- Solubility ([2]; Water, 50° C.): 0.82 mg of noscapine/g of solvent
- Solubility in words ([2]; chloroform): highly soluble
- Solubility in words ([2]; water): nearly insoluble
- Solubility ([3]; 0% acetonitrile by weight in water, 50° C.): 0.2 mg noscapine per gram of solve
- Solubility ([3]; 0% acetonitrile by weight in water, 70° C.): 0.2 mg noscapine per gram of solve
- Solubility ([3]; 20% acetonitrile by weight in water, 50° C.): 0.8 mg noscapine per gram of solve
- Solubility ([3]; 20% acetonitrile by weight in water, 70° C.): 1.4 mg noscapine per gram of solve
- Solubility ([3]; 40% acetonitrile by weight in water, 50° C.): 8.1 mg noscapine per gram of solve
- Solubility ([3]; 40% acetonitrile by weight in water, 70° C.): 6.7 mg noscapine per gram of solve
- Solubility ([3]; 60% acetonitrile by weight in water, 50° C.): 32.6 mg noscapine per gram of solve
- Solubility ([3]; 60% acetonitrile by weight in water, 70° C.): 46.3 mg noscapine per gram of solve
- Solubility ([3]; 80% acetonitrile by weight in water, 50° C.): 82.8 mg noscapine per gram of solve
- Solubility ([3]; 80% acetonitrile by weight in water, 70° C.): 181.9 mg noscapine per gram of solve
- Solubility ([3]; 100% acetonitrile by weight, 50° C.): 131.0 mg noscapine per gram of solve
- Solubility ([3]; 100% acetonitrile by weight, 70° C.): 226.5 mg noscapine per gram of solve
- Change of solubility in acetonitrile with temperature ([3]; acetonitrile, temperature increased from 22° C. to 50° C.): more than doubles
- Increase of solubility in the acetonitrile/water mixture ([3]; between 0° C. and 70° C., acetonitrile concentrations of about 50% or above): up to 10 fold
- Ratio of the solubility in pure acetonitrile to the solubility in pure water ([3]; solvent temperature 0° C.): about 78
- Ratio of the solubility in pure acetonitrile to the solubility in pure water ([3]; solvent temperature 70° C.): about 647

— US8394814B2, “Method of purifying crude noscapine” (priority 2008, dated 2013)
